{"source": "patent US11492327B2", "about": "“Aminooxylipids for the construction of self-assembling liposomal systems enabling their subsequent modification by biologically functional molecules” (VYSOKA SKOLA CHEMICKO-TECHNOLOGICKA V PRAZE, priority 2016, dated 2022)", "key": {"[1]": {"test": "HA binding onto liposomes presenting the aminooxy group vs. the amino group (gel chromatography, fluorimetry)", "settings": "incubated in 10 mM citric acid; lipid incorporated in liposomes", "method": "Methods: Liposomes presenting the aminooxy group were prepared by the procedure described in Example 15, containing 1% aminooxylipidid of general formula I (according to Example 14) at a starting concentration of 10 mg/ml PBS. The amino group-presenting liposomes were prepared by the same technique with the amino group-containing lipid DOPE. These liposomes at a starting concentration of 10 mg/ml PBS were mixed with fluorescently labelled HA (Sigma-Aldrich) at a concentration of 1 mg/ml PBS in a ratio of 1 mg total lipid to 0.1 mg HA. Incubation takes place for at least 30 minutes at room temperature (see Example 19). Both samples were incubated in 10 mM citric acid. Unbound HA was removed on a Superose 6 column (200 μl spraying buffer, flow rate of the first milliliter was 0.1 ml/min, then 0.3 ml/min, collection of 1 ml fractions). Fluorescence was measured using a Perkin Elmer fluorimeter at appropriate wavelengths (excitation for FITC-HA was 490 nm, emission 505 nm)."}, "[2]": {"test_system": "H1299 cells of lung carcinoma cell line", "test": "Cytotoxicity of liposomes: apoptotic cells detected with Annexin V by flow cytometry", "format": "cell-based", "settings": "aminooxylipid incorporated into liposomal bilayer", "method": "(§1) Methods: The cytotoxicity of liposomes prepared as described in Example 15 is determined by comparing the cytotoxicity of EPC liposomes and EPC liposomes with an incorporated aminooxylipid of general formula I (according to Example 12, 13 or 14) in in vitro experiments with T-lymphocytes and on H1299 cells of lung carcinoma cell line.\n(§2) Measurements were performed on a flow cytometer Fortessa (Becton Dickinson). Apoptotic cells were detected and quantified using the fluorescent dye Annexin V (Invitrogen).\n(§3) In all experiments, 500 μl media per well were used and lipid content was 100 μg per 1 ml of the medium. Unmodified liposomes and liposomes modified post-liposomally with hyaluronic acid were incubated. In Experiment 1, H1299 cells of lung carcinoma were incubated for 30 minutes at 4° C. In Experiment 2, T-lymphocytes were used and incubated at room temperature in a rotator. In Experiments 3 and 4, H1299 cells of lung carcinoma cell line were used and incubated for 2 hours in a CO2 incubator (37° C., 5% CO2). In Experiment 5, H1299 cells of lung carcinoma were used. These cells were incubated for 30 minutes at 4° C. in a refrigerator."}, "[3]": {"test_system": "T-lymphocytes", "test": "Cytotoxicity of liposomes: apoptotic cells detected with Annexin V by flow cytometry", "format": "cell-based", "settings": "aminooxylipid incorporated into liposomal bilayer", "method": "as §1, §2, §3"}, "[4]": {"test": "Size, PDI and zeta-potential of liposomes by DLS (Nanosizer ZS)", "format": "physicochemical", "settings": "for Effect of incorporation into liposomes on the final distribution of liposomes: 99% EPC, 1% aminooxylipid; for Zeta potential: liposomes containing 1% aminooxylipid in PBS solution with neutral pH", "method": "Methods: Liposomes with incorporated aminooxylipids were prepared by phospholipid film hydration. All lipids were dissolved in chloroform at a concentration of 10 mg of lipid/1 ml chloroform at a molar ratio of 99% EPC to 1% aminooxylipids of general formula I (according to Examples 12, 13 and 14). The chloroform solution was evaporated in a globular flask on a rotary evaporator; pressure: 100 hPa, water bath temperature: 37° C., 90 revolutions/minute). The resulting lipid film was hydrated with PBS (pH 7.2, 0.14M NaCl, 20 mM Na-phosphate) to a final concentration of 10 mg/ml. The liposomes were then extruded through Nucleopore polycarbonate filters with 400 and 100 nm pore size. The size and zeta-potential were measured using a Nanosizer ZS (Malvern, UK) in a DTS cell, Attenuator value 4, 25° C. […] Example with a lipid of general formula I (according to Example 12): EPC liposomes: size 82 nm, PDI 0.11; EPC+ aminooxylipid 1%: size 81 nm, PDI 0.1.\nDLS measurements were carried out under the same conditions as in Example 15.\nMethods: The liposomes prepared as described in Example 15, containing 1% aminooxylipidid of general formula I (according to Example 14) at a starting concentration of 10 mg/ml PBS were mixed with a mannan solution in PBS in a ratio of 1 mg total lipid to 0.1 mg mannan. The reaction was carried out at room temperature. Low molecular weight components and unbound mannan were removed by gel chromatography on a Superose 6 column. The mannan binding onto the liposomal surface was confirmed by: a) scanning and transmission electron microscopy; b) the change in liposome size was determined by the DLS technique (Zetasizer ZS, Malvern UK). The polysaccharide mannan was isolated from the yeast Candida albicans. The size of the molecules of mannan and liposomes was measured by DLS. […] Dendritic cells were prepared by culture from peripheral blood of healthy donors. Their stimulating activity was compared with lipopolysaccharide activity (LPS, standard Salmonella minnesota)."}}}
{"smiles": "CCCCCCCC/C=C\\CCCCCCCC(=O)OC[C@H](COP(=O)(O)OCCN)OC(=O)CCCCCCC/C=C\\CCCCCCCC", "note": "[DOPE, 1,2-dioleoyl-sn-glycero-3-phosphoethanolamine, reference compound]", "values": [{"measurement": "HA remaining bound after acidification, % of the original HA", "setting": "[1]", "value": 20, "unit": "%"}]}
{"smiles": "CCCCCCCCCCCCCCC(CCCCCCCCCCCCCC)C(=O)NCCNC(=O)CON.O=C(O)C(F)(F)F", "note": "[Example 12, N^1-(2-tetradecylhexadecanoyl)-N^2-amoniumoxyacetyl-1,2-diaminoethane-trifluoroacetate]", "values": [{"measurement": "Cytotoxicity of EPC liposomes with incorporated aminooxylipid vs. EPC liposomes", "setting": "[2]", "value": "does not result in an increase in their cytotoxicity"}, {"measurement": "Cytotoxicity of EPC liposomes with incorporated aminooxylipid vs. EPC liposomes", "setting": "[3]", "value": "does not result in an increase in their cytotoxicity"}, {"measurement": "Effect of incorporation into liposomes on the final distribution of liposomes", "setting": "[4]; Example 15", "value": "no significant effect"}, {"measurement": "PDI", "setting": "[4]; Example 15, EPC liposomes without or with 1% aminooxylipid, PBS", "value": 0.1}, {"measurement": "size", "setting": "[4]; Example 15, EPC liposomes without or with 1% aminooxylipid, PBS, extruded 400 and 100 nm", "value": 81, "unit": "nm"}, {"measurement": "Zeta potential", "setting": "[4]", "value": "around 0 mV"}]}
{"smiles": "CCCCCCCCCCCCCCC(CCCCCCCCCCCCCC)C(=O)NCCCNC(=O)CON.O=C(O)C(F)(F)F", "note": "[Example 13, N^1-(2-tetradecylhexadecanoyl)-N^3-amoniumoxyacetyl-1,3-diaminopropane-trifluoracetate]", "values": [{"measurement": "Cytotoxicity of EPC liposomes with incorporated aminooxylipid vs. EPC liposomes", "setting": "[2]", "value": "does not result in an increase in their cytotoxicity"}, {"measurement": "Cytotoxicity of EPC liposomes with incorporated aminooxylipid vs. EPC liposomes", "setting": "[3]", "value": "does not result in an increase in their cytotoxicity"}, {"measurement": "Effect of incorporation into liposomes on the final distribution of liposomes", "setting": "[4]; Example 15", "value": "no significant effect"}, {"measurement": "Zeta potential", "setting": "[4]", "value": "around 0 mV"}]}
{"smiles": "CCCCCCCCCCCCCCC(CCCCCCCCCCCCCC)C(=O)NCOC(CCOCC)NC(=O)CON.O=C(O)C(F)(F)F", "note": "(centres unmarked) [Example 14, N^1-(2-tetradecylhexadecanoyl)-N^3-amoniumoxyacetyl-1,3-diamino-2,6-dioxaoctane-trifluoracetate]", "values": [{"measurement": "Cytotoxicity of EPC liposomes with incorporated aminooxylipid vs. EPC liposomes", "setting": "[2]", "value": "does not result in an increase in their cytotoxicity"}, {"measurement": "Cytotoxicity of EPC liposomes with incorporated aminooxylipid vs. EPC liposomes", "setting": "[3]", "value": "does not result in an increase in their cytotoxicity"}, {"measurement": "Effect of incorporation into liposomes on the final distribution of liposomes", "setting": "[4]; Example 15", "value": "no significant effect"}, {"measurement": "size (size distribution, particle numbers)", "setting": "[4]; Example 20, FIG. 3, liposomes with 1% aminooxylipid, alone or coupled with IgY", "value": 107, "unit": "nm"}, {"measurement": "Zeta potential", "setting": "[4]", "value": "around 0 mV"}, {"measurement": "HA remaining bound after acidification, % of the original HA", "setting": "[1]", "value": "did not change due to acidification"}]}
